Data reported in patent US20140303105A1, “Primycin and components thereof for use in the treatment or prevention of infections caused by specific pathogens” (PANNONPHARMA GYÓGYSZERGYÁRTÓ ZRT., priority 2011, published 2014).
Values after ≈ are worked out from the molar mass of the structure shown.

How the values were obtained:
Assay in all cases: Standard microdilution susceptibility test, clinical isolates
Format in all cases: cell-based
[1] = test system: Streptococcus pneumoniae, penicillin resistant
[2] = test system: Streptococcus pneumoniae, penicillin susceptible; conditions: for MIC: single isolate
[3] = test system: Enterococcus sp., decreased vancomycin susceptibility; conditions: 5 clinical isolates
[4] = test system: Enterococcus sp., vancomycin susceptible; conditions: 20 clinical isolates
[5] = test system: Staphylococcus aureus, methicillin resistant; conditions: 10 clinical isolates
[6] = test system: Coagulase-negative Staphylococus sp., methicillin resistant; conditions: 10 clinical isolates
[7] = test system: Coagulase-negative Staphylococus sp., methicillin susceptible; conditions: 10 clinical isolates
[8] = test system: Streptococcus viridans sp.; conditions: 20 clinical isolates
[9] = test system: Staphylococcus aureus, methicillin susceptible; conditions: 10 clinical isolates
[10] = Streptococcus pneumoniae, 10 clinical isolates, read-out: MIC 50%
[11] = Streptococcus pneumoniae, 10 clinical isolates, read-out: MIC 90%
[12] = Staphylococcus aureus, read-out: MIC 50%
[13] = Staphylococcus aureus, read-out: MIC 90%

Compound | MIC Range [3] | Ratio of Sensitive/Total [3] | MIC 50% ([1]; 10 clinical isolates) | MIC 90% ([1]; 10 clinical isolates) | Ratio of Sensitive/Total ([1]; 10 clinical isolates) | MIC 50% ([2]; 10 clinical isolates) | MIC 90% ([2]; 10 clinical isolates) | MIC Range ([2]; 10 clinical isolates) | Ratio of Sensitive/Total ([2]; 10 clinical isolates) | MIC 50% [4] | MIC 90% [4] | Ratio of Sensitive/Total [4] | MIC 50% [5] | MIC 90% [5] | Ratio of Sensitive/Total [5] | Ratio of Sensitive/Total [6] | Ratio of Sensitive/Total [7] | Ratio of Sensitive/Total [8] | MIC Range [9] | Ratio of Sensitive/Total [9] | other results
Penicillin |  |  |  |  |  |  |  |  |  |  |  |  |  |  |  |  |  |  |  |  | MIC ([1]; single isolate, serotype 23(F)): 2 µg/mL; MIC ([2]; serotype 3): 0.015 µg/mL; MIC ([2]; serotype 4): 0.015 µg/mL; MIC ([2]; serotype 7F): 0.015 µg/mL; MIC ([2]; serotype 8): 0.015 µg/mL; MIC ([2]; serotype 9(V)): 0.03 µg/mL; MIC ([2]; serotype 11(A)): 0.06 µg/mL; MIC ([2]; serotype 19F): 0.03 µg/mL; MIC ([2]; serotype 23(F)): 0.015 µg/mL
Gentamicin | 8 to 16 µg/mL | 0/5 | 16 µg/mL | >16 µg/mL | 0/10 | 16 µg/mL | 16 µg/mL | 8 to 16 µg/mL | 0/10 | 8 µg/mL | >16 µg/mL | 1/20 | 0.5 µg/mL | 0.5 µg/mL | 10/10 | 6/10 | 9/10 | 9/20 | 0.25 to 0.5 µg/mL | 10/10 | MIC Range [5]: 0.25 to 1 µg/mL; MIC 50% [6]: 0.125 µg/mL; MIC 90% [6]: >16 µg/mL; MIC 50% [7]: 0.125 µg/mL; MIC 90% [7]: 4 µg/mL; MIC Range [7]: 0.03 to 8 µg/mL; MIC 50% [8]: 8 µg/mL; MIC 90% [8]: 16 µg/mL; MIC 50% [9]: 0.5 µg/mL; MIC 90% [9]: 0.5 µg/mL
Neomycin |  | 0/5 | >32 µg/mL | >32 µg/mL | 0/10 | >32 µg/mL | >32 µg/mL |  | 0/10 | >32 µg/mL | >32 µg/mL | 0/20 | 1 µg/mL | >32 µg/mL | 5/10 | 8/10 | 10/10 | 0/20 | 0.5 to 2 µg/mL | 10/10 | MIC 50% [6]: 0.25 µg/mL; MIC 90% [6]: 16 µg/mL; MIC 50% [7]: 0.25 µg/mL; MIC 90% [7]: 1 µg/mL; MIC Range [7]: 0.06 to 4 µg/mL; MIC 50% [8]: >32 µg/mL; MIC 90% [8]: >32 µg/mL; MIC 50% [9]: 1 µg/mL; MIC 90% [9]: 2 µg/mL
CN(C)[C@@H]1C(O)=C(C(N)=O)C(=O)[C@@]2(O)C(O)=C3C(=O)c4c(O)cccc4[C@@](C)(O)[C@H]3[C@H](O)[C@@H]12 [Oxytetracycline] | 0.25 to 16 µg/mL | 2/5 |  |  | 1/10 |  |  | 1 to 8 µg/mL | 8/10 |  |  | 6/20 |  |  | 10/10 | 8/10 | 9/10 | 10/20 | 0.25 to 32 µg/mL | 8/10 | MIC50 [1, 10]: 32 µg/mL (≈ 69.5 µM); MIC90 [1, 11]: > 32 µg/mL; MIC50 [2, 10]: 1 µg/mL (≈ 2.17 µM); MIC90 [2, 11]: 8 µg/mL (≈ 17.4 µM); MIC50 ([4]; Enterococcus, read-out: MIC 50%): 16 µg/mL (≈ 34.7 µM); MIC90 ([4]; Enterococcus, read-out: MIC 90%): 32 µg/mL (≈ 69.5 µM); MIC Range [5]: 0.125 to 0.25 µg/mL; MIC50 [5, 12]: 0.25 µg/mL (≈ 0.543 µM); MIC90 [5, 13]: 0.25 µg/mL (≈ 0.543 µM); MIC50 ([6]; read-out: MIC 50%): 1 µg/mL (≈ 2.17 µM); MIC90 ([6]; read-out: MIC 90%): > 32 µg/mL; MIC50 ([7]; read-out: MIC 50%): 0.25 µg/mL (≈ 0.543 µM); MIC90 ([7]; read-out: MIC 90%): 1 µg/mL (≈ 2.17 µM); MIC50 ([8]; Streptococcus viridans, read-out: MIC 50%): 4 µg/mL (≈ 8.69 µM); MIC90 ([8]; Streptococcus viridans, read-out: MIC 90%): > 32 µg/mL; MIC50 [9, 12]: 0.25 µg/mL (≈ 0.543 µM); MIC90 [9, 13]: 32 µg/mL (≈ 69.5 µM)
